Assay results: patent publication US20260256777A1, “DEGRADANT COMPOUND IN A MEDICAMENT” (VISUS THERAPEUTICS, INC., priority 2020, published 2026)

How the values were obtained:
[1] = Forced degradation samples analysed by prototype HPLC method; assay type: physicochemical
Method: A new prototype HPLC method has been developed to study early eluting peaks not well separated by the method described in Example 3, Table 3. The method better separates early eluting brimonidine-related impurities. All sample solutions from the Phase I and II stress studies were analyzed with the prototype method. […] This was consistent with the analysis results per the method described in Example 4, Table 6. Another unknown impurity, impurity B, was also observed in the chromatogram for the 0.1 M NaOH and heat-stressed combined API sample at RT 3.44 min with a level of ~0.05% relative to the brimonidine peak area. The extracted UV spectrum for impurity B is consistent with the UV Spectrum previously observed in stability samples.

[2] = Forced degradation of combined brimonidine tartrate and carbachol APIs, LC-PDA analysis; assay type: physicochemical; conditions: 66 hours
Method: Following the procedures shown in Table 9, the two APIs combined were stressed with moisture and heat (Sample A), 0.1 M HCl at room temperature (Sample B), 0.1 M NaOH at room temperature (Sample C), vehicle and heat (Sample D), 1 M HCl at room temperature (Sample E), and 1 M NaOH at room temperature (Sample F) for 66 hours. A drug product vehicle was stressed under heat for 66 hours as a control (Sample G). After the stress treatment was completed, all samples were removed from condition, allowed to cool to room temperatures, then neutralized where appropriate, and brought to a similar concentration level. The samples were capped and shaken until all the materials in each sample were dissolved. Then each sample solution was diluted in the HPLC method diluent used in Example 4, Table 6 and mixed well. For retention time verification purposes, a reference sample solution was also prepared using a carbachol/brimonidine six month accelerated stability sample (Table 8). The brimonidine tartrate analytical concentration for all of the degraded and the reference sample solutions was 0.1 mg/mL.
All of the sample solutions prepared as described in Table 9 were analyzed per the HPLC-PDA method shown in Example 4, Table 6. […] The level of the impurity present in both base-stressed samples is about 0.02% relative to that of the brimonidine peak. The extracted UV spectra for the RRT 0.91 impurity from the carbachol/brimonidine formulation (6 month accelerated stability sample) and the two base-stressed samples are similar for each.
The Phase I forced degradation study confirmed that the RRT 0.91 impurity was formed when the two APIs together were stressed under basic (either 0.1 M NaOH or 1 M NaOH) conditions and at room temperatures. To study temperature impact on the reaction, the two APIs, brimonidine tartrate and carbachol, were combined and stressed under both base and heat (45° C.) conditions simultaneously.
Additionally, to further confirm that the presence of both APIs was needed for the formation of the RRT 0.91 peak, individual API samples were also stressed in the same way. […] After the stress treatment was completed, all samples (H-M) were removed from condition, allowed to cool to room temperatures, neutralized where appropriate, and brought to a similar concentration level. The samples were capped and shaken until all the materials in each flask were dissolved. Then each sample solution was diluted in the HPLC method diluent (Example 4, Table 6) and mixed well.
All the base and heat-stressed sample solutions prepared as described in Table 10 were analyzed by LC-PDA analysis per the method shown in Example 4, Table 6. […] This further confirmed that the RRT 0.91 impurity was a reaction product of the two APIs.

SMILES	impurity B level relative to the brimonidine peak area ([1]; 0.1 M NaOH and heat-stressed combined API sample)	impurity B level ([1]; other base-stressed combined APIs)	Relative % Peak Area for RRT 0.91 Impurity (Versus Peak Area of Brimonidine) ([2]; 0.1M NaOH, 45° C.) [%]	Relative % Peak Area for RRT 0.91 Impurity (Versus Peak Area of Brimonidine) ([2]; 0.1M NaOH, room temperature) [%]	Relative % Peak Area for RRT 0.91 Impurity (Versus Peak Area of Brimonidine) ([2]; 0.1M NaOH, room temperature, listed as RRT 0.91 impurity)	Relative % Peak Area for RRT 0.91 Impurity (Versus Peak Area of Brimonidine) ([2]; 1M NaOH, 45° C.) [%]	Relative % Peak Area for RRT 0.91 Impurity (Versus Peak Area of Brimonidine) ([2]; 1M NaOH, room temperature) [%]	Relative % Peak Area for RRT 0.91 Impurity (Versus Peak Area of Brimonidine) ([2]; 1M NaOH, room temperature, listed as RRT 0.91 impurity)
NC(=O)NCCNC(=O)Nc1ccc2nccnc2c1Br [Impurity B, 1-(5-bromoquinoxalin-6-yl)-3-(2-ureidoethyl)urea]	~ 0.05%	very low levels						
NC(=O)N1CCN=C1Nc1ccc2nccnc2c1Br [RRT 0.91 Impurity, 2-((5-bromoquinoxalin-6-yl)amino)-4,5-dihydro-1H-imidazole-1-carboxamide]			0.15	0.02	about 0.02%	0.03	0.02	about 0.02%
